Test results reported in US20050130979A1, “Treatment of demyelinating disorders” (Eisai Co., Ltd., priority 1998, published 2005).
Entries after “also recorded” stand apart in the source; their conditions may differ.

Legend:
Lewis rat acute EAE = assay: Acute-active EAE in Lewis rats (MBP immunisation), clinical disease scoring and weight; format: in vivo; conditions: for Incidence (%) / Incidence (animals with neurological deficit / group): Lewis rat acute EAE; for Duration / Onset / Peak Disease Score / Cumulative Disease Score / Weight Loss: mean; for Peak Disease Score: scale 0-5; for neurological deficits during acute EAE (in words): following treatment; for severity of paralysis during EAE (in words): vs vehicle
Experimental: Female Lewis rats (205+10 g) obtained from Charles River, Kent, UK, were housed in pairs under environmentally controlled conditions (6:00 a.m.-6:00 p.m. light/dark cycle; 22-24° C.; 45-55% humidity) and allowed free access to food and water. […] Female Biozzi mice (20±5 g) obtained from Harlan, UK, were housed under the conditions described above. Experimental groups consisted of 7-10 animals.
Rats were immunised in each hind foot with 50 μl of inoculum containing 50 μg guinea pig myelin basic protein (MBP, prepared by the method of Dunkley and Carnegie (1974); final concentration […]), emulsified in Freund's complete adjuvant (CFA; Sigma, UK) containing Mycobacterium tuberculosis H37Ra (final concentration 5.5 mg/ml; Difco Laboratories, UK).
Animals were weighed and monitored daily and clinical disease scored as (0) no clinical signs; (1) flaccid tail and weight loss; (2) hind limb hypotonia with further weight loss; (3) complete hind limb paralysis; (4) paraplegia and (5) death. […] During the period of compound administration (10-16 days post immunisation; dpi) animals were scored 15 h after injection of vehicle or NBQX to avoid any acute effect of treatment on disease score.
NBQX was initially dissolved in NaOH and diluted with water. pH was adjusted with HCl. Rats were injected i.p. twice daily (9 a.m. and 5 p.m.) on days 10 to 16 post immunisation with either vehicle or NBQX in the dose of 30 mg/kg. Mice were injected i.p. either twice daily (9 a.m. and 5 p.m.) on days 10 to 16 post immunisation or once daily (9 a.m.) on days 26 to 42 post immunisation with either vehicle or NBQX in the dose of 30 mg/kg.
GYKI53773 was suspended in 5% cremophore in saline. Rats were injected i.p. twice daily (9 a.m. and 5 p.m.) on days 10 to 16 post immunisation with either vehicle or GYKM53773 in the dose of 30 mg/kg.
GYKM52466 was suspended in 5% cremophore in water. Rats were injected i.p. twice daily (9 a.m. and 5 p.m.) on days 10 to 16 post immunisation with either vehicle or GYKI52466 in the dose of 30 mg/kg.
BIIR561 was suspended in 5% cremophore in water. Rats were injected i.p. twice daily (9 a.m. and 5 p.m.) on days 10 to 16 post immunisation with either vehicle or BIIR561 in the dose of 30 mg/kg.
CP465022 was suspended in 5% cremophore in water. Rats were injected i.p. twice daily (9 a.m. and 5 p.m.) on days 10 to 16 post immunisation with either vehicle or CP465022 in the dose of 10 mg/kg.
MPQX was initially dissolved in NaOH and diluted with water. pH was adjusted with HCl. Rats were injected i.p. twice daily (9 a.m. and 5 p.m.) on days 10 to 16 post immunisation with either vehicle or MPQX in the dose of 10 mg/kg.

[1] = system: chronic EAE in the Biozzi mouse; assay: Chronic-active EAE in Biozzi mice, clinical disease scoring; format: in vivo
[2] = BIIR561 30 mg/kg i.p. twice daily 10-16 dpi
[3] = rats, 30 mg/kg i.p. twice daily 10-16 dpi
[4] = rats, 30 mg/kg i.p. twice daily 10-16 dpi, 30 mg/kg
[5] = CP465022 10 mg/kg i.p. twice daily 10-16 dpi
[6] = rats, 10 mg/kg i.p. twice daily 10-16 dpi
[7] = rats, 10 mg/kg i.p. twice daily 10-16 dpi, 10 mg/kg
[8] = GYKI52466 30 mg/kg i.p. twice daily 10-16 dpi
[9] = MPQX 10 mg/kg i.p. twice daily 10-16 dpi
[10] = NBQX 30 mg/kg i.p. twice daily 10-16 dpi
[11] = 30 mg/kg i.p. twice daily 10-16 dpi
[12] = GYKI53773 30 mg/kg i.p. twice daily 10-16 dpi

## CN(C)Oc1ccccc1-c1nc(-c2ccccc2)no1 [BIIR561, 5-(2-[N,N-dimethylamino]oxy-phenyl)-3-phenyl-1,2,4-oxadiazol]
Lewis rat acute EAE; [2]
  Incidence (%): (100) %
  Incidence (animals with neurological deficit / group): 16/16
  Duration: 3.9 days
  Peak Disease Score: 2.6
Lewis rat acute EAE; n = 16 for BIIR561, 30 mg/kg i.p. twice daily 10-16 dpi
  Onset: 12.4 d.p.i.
Lewis rat acute EAE; summation of daily scores, BIIR561 30 mg/kg i.p. twice daily 10-16 dpi
  Cumulative Disease Score: 7.8
Lewis rat acute EAE; weight on cessation of experiment as percent of maximum weight before disease onset, BIIR561 30 mg/kg i.p. twice daily
  Weight Loss: 17%
Lewis rat acute EAE; rats
  neurological deficits during acute EAE (in words): reduced neurological deficits
Lewis rat acute EAE; [3]
  cumulative disease score relative to vehicle treatment (in words): significantly reduced
  severity of paralysis during EAE (in words): redcues the severity of paralysis
Lewis rat acute EAE; [4]
  peak disease score relative to vehicle treatment (in words): significantly reduced

## CCN(CC)Cc1cccc(C=Cc2nc3ccc(F)cc3c(=O)n2-c2ccccc2Cl)n1 [CP465022, 3-(2-chlorophenyl)-2-[2-[6-[(diethylamino)methyl]-2-pyridinyl]ethenyl]-6-fluoro-4(3H)-quinazolinone]
Lewis rat acute EAE; [5]
  Incidence (%): (89) %
  Incidence (animals with neurological deficit / group): 8/9
  Duration: 3.4 days
  Peak Disease Score: 2.0
Lewis rat acute EAE; n = 8 for CP465022, 10 mg/kg i.p. twice daily 10-16 dpi
  Onset: 13.4 d.p.i.
Lewis rat acute EAE; summation of daily scores, CP465022 10 mg/kg i.p. twice daily 10-16 dpi
  Cumulative Disease Score: 7.2
Lewis rat acute EAE; weight on cessation of experiment as percent of maximum weight before disease onset, CP465022 10 mg/kg i.p. twice daily
  Weight Loss: 20%
Lewis rat acute EAE; rats
  neurological deficits during acute EAE (in words): reduced neurological deficits
Lewis rat acute EAE; [6]
  cumulative disease score relative to vehicle treatment (in words): reduced
  disease duration relative to vehicle treatment (in words): reduced
  disease onset relative to vehicle treatment (in words): significantly delayed
  severity of paralysis during EAE (in words): reduces the severity of paralysis
Lewis rat acute EAE; [7]
  peak disease score relative to vehicle treatment (in words): significantly reduces; also recorded: reduced

## CC1=NN=C(c2ccc(N)cc2)c2cc3c(cc2C1)OCO3 [GYKI52466, 1-(-aminophenyl)-4-methyl-7,8-methylene-dioxy-5H-2,3-benzodiazepine]
Lewis rat acute EAE; [8]
  Incidence (%): (60) %
  Incidence (animals with neurological deficit / group): 15/16
  Duration: 4.0 days
  Peak Disease Score: 2.4
Lewis rat acute EAE; n = 15, GYKI52466 30 mg/kg i.p. twice daily 10-16 dpi
  Onset: 11.6 d.p.i.
Lewis rat acute EAE; summation of daily scores, GYKI52466 30 mg/kg i.p. twice daily 10-16 dpi
  Cumulative Disease Score: 8.0
Lewis rat acute EAE; weight on cessation of experiment as percent of maximum weight before disease onset, GYKI52466 30 mg/kg i.p. twice daily
  Weight Loss: 20%
Lewis rat acute EAE; rats
  neurological deficits during acute EAE (in words): reduced neurological deficits
Lewis rat acute EAE; [3]
  cumulative disease score relative to vehicle treatment (in words): significantly reduced
  severity of paralysis during EAE (in words): reduces the severity of paralysis
Lewis rat acute EAE; [4]
  peak disease score relative to vehicle treatment (in words): significantly reduced

## O=c1[nH]c2cc(C(F)(F)F)c(N3CCOCC3)cc2n(CP(=O)(O)O)c1=O [MPQX]
Lewis rat acute EAE; [9]
  Incidence (%): (58) %
  Incidence (animals with neurological deficit / group): 7/12
  Duration: 1.7 days
  Peak Disease Score: 1.2
Lewis rat acute EAE; n = 7 for MPQX, 10 mg/kg i.p. twice daily 10-16 dpi
  Onset: 12.3 d.p.i.
Lewis rat acute EAE; summation of daily scores, MPQX 10 mg/kg i.p. twice daily 10-16 dpi
  Cumulative Disease Score: 3.2
Lewis rat acute EAE; weight on cessation of experiment (18 dpi) as percent of maximum weight before disease onset, MPQX 10 mg/kg i.p. twice daily
  Weight Loss: 22%
Lewis rat acute EAE; rats
  neurological deficits during acute EAE (in words): reduced neurological deficits
Lewis rat acute EAE; [6]
  cumulative disease score relative to vehicle treatment (in words): reduced
  disease duration relative to vehicle treatment (in words): reduced
  disease onset relative to vehicle treatment (in words): significantly delayed
  severity of paralysis during EAE (in words): reduces the severity of paralysis
Lewis rat acute EAE; [7]
  peak disease score relative to vehicle treatment (in words): significantly reduces; also recorded: reduced

## NS(=O)(=O)c1cccc2c1c([N+](=O)[O-])cc1nc(O)c(O)nc12 [NBQX, 2,3-dihydroxy6-nitro-7-sulfamoylbenzo-(F)quinoxaline]
Lewis rat acute EAE; [10]
  Incidence (%): (75) %
  Incidence (animals with neurological deficit / group): 4/10
Lewis rat acute EAE; NBQX 30 mg/kg i.p. twice daily 10-16 dpi, p<0.01
  onset of weight loss: 13 dpi
Lewis rat acute EAE; NBQX 30 mg/kg i.p. twice daily from day 10 to 16 post immunisation
  rats in which development of paralysis was completely prevented: 6 out of 10
Lewis rat acute EAE; [11]
  Duration: 1.5 days
  Peak Disease Score: 0.7
Lewis rat acute EAE; n = 4 for NBQX, 30 mg/kg i.p. twice daily 10-16 dpi
  Onset: 11.8 d.p.i.
Lewis rat acute EAE; summation of individual daily disease scores, 30 mg/kg i.p. twice daily 10-16 dpi
  Cumulative Disease Score: 2.4
Lewis rat acute EAE; weight on cessation of treatment (16 dpi) as percent of maximum weight before disease onset, 30 mg/kg i.p. twice daily
  Weight Loss: 14%
Lewis rat acute EAE; rats
  neurological deficits during acute EAE (in words): reduction in neurological deficits
Lewis rat acute EAE; [3]
  cumulative disease score relative to vehicle treatment (in words): significantly reduced
  disease duration relative to vehicle treatment (in words): significantly reduced
  severity of paralysis during EAE (in words): reduces severity of paralysis
Lewis rat acute EAE; [4]
  peak disease score relative to vehicle treatment (in words): significantly reduced
Lewis rat acute EAE; rats, NBQX 30 mg/kg i.p. twice daily 10-16 dpi, up to cessation of treatment (16 dpi)
  weight loss during the course of EAE (in words): reduces weight loss; also recorded: decreasing the percent body weight lost
[1]; Biozzi mice, NBQX 30 mg/kg i.p. once daily for 17 days commencing on dpi 26, P<0.05
  disease severity between dpi 28 to 48 (in words): reduced disease severity
[1]; Biozzi mice, NBQX 30 mg/kg i.p. twice daily for 7 days starting on dpi 10, P<0.001
  disease severity between dpi 10 to 48 (in words): improved neurological outcome reducing disease severity
[1]; NBQX 30 mg/kg i.p., twice daily 10-16 dpi (A) or once daily 26-42 dpi (B)
  severity of paralysis during chronic EAE (in words): reduces the severity of paralysis
[1]; mice, following treatment
  neurological deficit during chronic EAE (in words): reduction in neurological deficit

## (−)1-(4-aminophenyl)-4-methyl-7,8-methylenedioxy-4,5-dihydro-^3-methylcarbamoyl-2,3-benzodiazepine [GYKI53773]
Lewis rat acute EAE; [12]
  Incidence (%): (60) %
  Incidence (animals with neurological deficit / group): 6/10
  Duration: 1.9 days
  Peak Disease Score: 0.9
Lewis rat acute EAE; n = 6 for GYKI53773, 30 mg/kg i.p. twice daily 10-16 dpi
  Onset: 12.7 d.p.i.
Lewis rat acute EAE; summation of daily scores, GYKI53773 30 mg/kg i.p. twice daily 10-16 dpi
  Cumulative Disease Score: 2.1
Lewis rat acute EAE; weight on cessation of experiment (20 dpi) as percent of maximum weight before disease onset, GYKI53773 30 mg/kg i.p. twice daily
  Weight Loss: 16%
Lewis rat acute EAE; rats
  neurological deficits during acute EAE (in words): reduced neurological deficits
Lewis rat acute EAE; [3]
  cumulative disease score relative to vehicle treatment (in words): significantly reduced
  disease duration relative to vehicle treatment (in words): significantly reduced
  severity of paralysis during EAE (in words): reduces the severity of paralysis
Lewis rat acute EAE; [4]
  peak disease score relative to vehicle treatment (in words): significantly reduced
Lewis rat acute EAE; rats, 30 mg/kg i.p. twice daily 10-16 dpi, listed as GYKM53773, 30 mg/kg
  peak disease score relative to vehicle treatment (in words): significantly reduces
